≈ marks a conversion by molar mass, not a printed value.
What was measured:
[1] = Powder X-ray diffractometry, crystallinity by the Hermans method; type: physicochemical
Experimental: To be specific, powder samples (about 2 mg) were placed on a silicon sample plate, and scanned between 2 and 35 degrees (2θ) at a scan speed of 6 degrees/min. Powder samples such as nanoized FSD and the like were prepared by centrifuging suspensions thereof by cooling centrifugal machine Himac CR21G (manufactured by Hitachi Koki Co., Ltd.) at 19,000 rpm for 10 min and drying same. In addition, from the obtained X-ray diffraction patterns by the Hermans method, crystallinity before and after wet grinding was calculated.

[2] = value at 25° C. and 1 atm; cited from earlier work

| SMILES | crystallinity before wet grinding [1] [%] | water solubility [2] | diffraction pattern before and after wet grinding (dissociation of cocrystal) ([1]; wet grinding in 0.5% (w/v) HPMC and 0.02% (w/v) SDS) | formation of hydrate by wet grinding ([1]; diffraction pattern after wet grinding) |
| --- | --- | --- | --- | --- |
| COc1ccc2c(c1)c(CC(=O)O)c(C)n2C(=O)c1ccc(Cl)cc1 [indomethacin] | 81 | 0.0095 mg/mL (≈ 26.6 µM) | – | – |
| NS(=O)(=O)c1cc(C(=O)O)c(NCc2ccco2)cc1Cl [Furosemide, furosemide] | 85 | – | did not show a marked difference in the diffraction pattern before and after the wet grinding | – |
| O=C1NS(=O)(=O)c2ccccc21 [Saccharin, saccharin] | – | 3.4 mg/mL (≈ 18600 µM) | – | – |
| NC(N)=O [urea] | – | 1,000 mg/mL | – | – |
| NC(=O)N1c2ccccc2C=Cc2ccccc21 [anhydrous carbamazepine, carbamazepine] | 88 | 0.22 mg/mL (≈ 931 µM) | – | formation of CBZ dihydrate could be confirmed |

Source: US10226426B2, “Suspension containing nano-cocrystal and manufacturing method” (TAKEDA PHARMACEUTICAL COMPANY LIMITED, priority 2015, dated 2019)
